“And” between values parts separate entries of the source, which are not always exact repeats. Equal entries are not always repeated.
What was measured:
[1] = system: Glomerella lagenarium (Colletotrichum lagenarium); assay: Glomerella lagenarium (Colletotrichum lagenarium) liquid culture / cucumber / preventative (anthracnose); format: cell-based; settings: Colletotrichum orbiculare; 20 ppm in the applied formulation; liquid culture in PDB, 24° C.; 3 to 4 days after application; read-out: disease control compared to untreated control (inhibition of growth measured photometrically)
Description: Mycelia fragments or conidia suspensions of a fungus prepared either freshly from liquid cultures of the fungus or from cryogenic storage, are directly mixed into nutrient broth. DMSO solutions of the test compound (max. 10 mg/ml) are diluted with 0.025% Tween20 by a factor of 50 and 10 μl of this solution is pipetted into a microtiter plate (96-well format). The nutrient broth containing the fungal spores/mycelia fragments is then added to give an end concentration of the tested compound. The test plates are incubated in the dark at 24° C. and 96% relative humidity. The inhibition of fungal growth is determined photometrically after 2 to 7 days, depending on the pathosystem, and percent antifungal activity relative to the untreated check is calculated.
Conidia of the fungus from cryogenic storage are directly mixed into nutrient broth (PDB—potato dextrose broth). After placing a (DMSO) solution of test compound into a microtiter plate (96-well format), the nutrient broth containing the fungal spores is added. The test plates are incubated at 24° C. and the inhibition of growth is measured photometrically 3 to 4 days after application.
The following compounds at 20 ppm in the applied formulation give at least 80% disease control in this test when compared to untreated control under the same conditions, which show extensive disease development.

[2] = system: Puccinia recondita f. Sp. Tritici; assay: Puccinia recondita f. sp. tritici / wheat / leaf disc curative (brown rust); format: in vivo; settings: foliar, 200 ppm in the applied formulation, wheat leaf segments cv. Kanzler, applied 1 day after inoculation, assessed 6 to 8 days after application, read-out: disease control compared to untreated control leaf disks
Description: (§1) Leaf disks or leaf segments of various plant species are cut from plants grown in a greenhouse. The cut leaf disks or segments are placed in multiwell plates (24-well format) onto water agar. The leaf disks are sprayed with a test solution before (preventative) or after (curative) inoculation. Compounds to be tested are prepared as DMSO solutions (max. 10 mg/ml) which are diluted to the appropriate concentration with 0.025% Tween20 just before spraying. The inoculated leaf disks or segments are incubated under defined conditions (temperature, relative humidity, light, etc.) according to the respective test system. A single evaluation of disease level is carried out 3 to 14 days after inoculation, depending on the pathosystem. Percent disease control relative to the untreated check leaf disks or segments is then calculated.
Wheat leaf segments cv. Kanzler are placed on agar in multiwell plates (24-well format). The leaf segments are then inoculated with a spore suspension of the fungus. Plates were stored in darkness at 19° C. and 75% relative humidity. The formulated test compound diluted in water was applied 1 day after inoculation. The leaf segments were incubated at 19° C. and 75% relative humidity under a light regime of 12 hours light/12 hours darkness in a climate cabinet and the activity of a compound was assessed as percent disease control compared to untreated when an appropriate level of disease damage appears in untreated check leaf segments (6 to 8 days after application).
(§2) The following compounds at 200 ppm in the applied formulation give at least 80% disease control in this test when compared to untreated control leaf disks under the same conditions, which show extensive disease development.

Phakopsora pachyrhizi = Phakopsora pachyrhizi / soybean / leaf disc preventative (Asian soybean rust); format: in vivo; settings: foliar, 200 ppm in the applied formulation, soybean leaf disks, inoculated one day after application, assessed 12 to 14 days after application, read-out: disease control compared to untreated control leaf disks
Description: as §1
Soybean leaf disks are placed on water agar in multiwell plates (24-well format) and sprayed with the formulated test compound diluted in water. One day after application leaf discs are inoculated by spraying a spore suspension on the lower leaf surface. After an incubation period in a climate cabinet of 24-36 hours in darkness at 20° C. and 75% rh leaf disc are kept at 20° C. with 12 h light/day and 75% rh. The activity of a compound is assessed as percent disease control compared to untreated when an appropriate level of disease damage appears in untreated check leaf disks (12 to 14 days after application).
as §2

[3] = system: Puccinia recondita f. Sp. Tritici; assay: Puccinia recondita f. sp. tritici / wheat / leaf disc preventative (brown rust); format: in vivo; settings: foliar, 200 ppm in the applied formulation, wheat leaf segments cv. Kanzler, inoculated 1 day after application, assessed 7 to 9 days after application, read-out: disease control compared to untreated control leaf disks
Description: as §1, with “calculated. Wheat leaf segments cv. Kanzler were placed on agar in multiwell plates (24-well format) and sprayed with the formulated test compound diluted in water. The leaf disks were inoculated with a spore suspension of the fungus 1 day after application. The inoculated leaf segments were incubated at 19° C. and 75% relative humidity (rh) under a light regime of 12 hours light/12 hours darkness in a climate cabinet and the activity of a compound was assessed as percent disease control compared to untreated when an appropriate level of disease damage appears in untreated check leaf segments (7 to 9 days after application). The following compounds at 200 ppm in the applied formulation give at least 80% disease control in this test when compared to untreated control leaf disks under the same conditions, which show extensive disease development.” for “calculated.”

SMILES: FC(F)(F)c1nc(-c2ccc(Sc3ccccc3)nc2)no1 [Compound 1.7, 3-(6-phenylsulfanyl-3-pyridyl)-5-(trifluoromethyl)-1,2,4-oxadiazole]
- inhibition at 20 ppm [1]: ≥ 80%
- melting point: 124 to 129 °C
- pest or weed control at 200 ppm [2]: ≥ 80%
- pest or weed control at 200 ppm (Phakopsora pachyrhizi): ≥ 80%

SMILES: Fc1cccc(F)c1Sc1ccc(-c2noc(C(F)(F)F)n2)cc1 [Compound 1.12, 3-[4-(2,6-difluorophenyl)sulfanylphenyl]-5-(trifluoromethyl)-1,2,4-oxadiazole]
- inhibition at 20 ppm [1]: ≥ 80%
- melting point: 75 to 85 °C
- pest or weed control at 200 ppm [2]: ≥ 80%
- pest or weed control at 200 ppm (Phakopsora pachyrhizi): ≥ 80%

SMILES: Fc1ccccc1Sc1ccc(-c2noc(C(F)(F)F)n2)cc1 [Compound 1.14, 3-[4-(2-fluorophenyl)sulfanylphenyl]-5-(trifluoromethyl)-1,2,4-oxadiazole]
- pest or weed control at 200 ppm [3]: ≥ 80%
- melting point: 35 to 38 °C
- pest or weed control at 200 ppm [2]: ≥ 80%
- pest or weed control at 200 ppm (Phakopsora pachyrhizi): ≥ 80%

SMILES: Fc1ccccc1SCc1ccc(-c2noc(C(F)(F)F)n2)cc1 [Compound 1.15, 3-[4-[(2-fluorophenyl)sulfanylmethyl]phenyl]-5-(trifluoromethyl)-1,2,4-oxadiazole]
- melting point: 56 to 61 °C
- pest or weed control at 200 ppm [2]: ≥ 80%
- pest or weed control at 200 ppm (Phakopsora pachyrhizi): ≥ 80%

SMILES: [O-][S+](c1ccc(F)cc1)c1ccc(-c2noc(C(F)(F)F)n2)cc1 (stereo not shown) [Compound 2.13, 3-[4-(4-fluorophenyl)sulfinylphenyl]-5-(trifluoromethyl)-1,2,4-oxadiazole]
- pest or weed control at 200 ppm [3]: ≥ 80%
- melting point: 94 to 99 °C
- pest or weed control at 200 ppm [2]: ≥ 80%
- pest or weed control at 200 ppm (Phakopsora pachyrhizi): ≥ 80%

SMILES: CCC(C)C[S+]([O-])c1ccc(-c2noc(C(F)(F)F)n2)cc1 (stereo not shown) [Compound 2.22, 3-[4-(2-methylbutylsulfinyl)phenyl]-5-(trifluoromethyl)-1,2,4-oxadiazole]
- inhibition at 20 ppm [1]: ≥ 80%
- melting point: 38 to 43 °C
- pest or weed control at 200 ppm [2]: ≥ 80%
- pest or weed control at 200 ppm (Phakopsora pachyrhizi): ≥ 80%

SMILES: [O-][S+](Cc1ccc(-c2noc(C(F)(F)F)n2)c(F)c1F)c1ccccc1 (stereo not shown) [Compound 2.31, 3-[4-(benzenesulfinylmethyl)-2,3-difluoro-phenyl]-5-(trifluoromethyl)-1,2,4-oxadiazole]
- pest or weed control at 200 ppm [3]: ≥ 80%
- inhibition at 20 ppm [1]: ≥ 80%
- melting point: 163 to 167 °C
- pest or weed control at 200 ppm (Phakopsora pachyrhizi): ≥ 80%

SMILES: [O-][S+](Cc1c(F)cc(-c2noc(C(F)(F)F)n2)cc1F)c1ccccc1 (stereo not shown) [Compound 2.32, 3-[4-(benzenesulfinylmethyl)-3,5-difluoro-phenyl]-5-(trifluoromethyl)-1,2,4-oxadiazole]
- inhibition at 20 ppm [1]: ≥ 80%
- melting point: 120 to 125 °C
- pest or weed control at 200 ppm [2]: ≥ 80%
- pest or weed control at 200 ppm (Phakopsora pachyrhizi): ≥ 80%

SMILES: COc1ccc(S(=O)(=O)c2ccc(-c3noc(C(F)(F)F)n3)cc2)cc1 [Compound 3.2, 3-[4-(4-methoxyphenyl)sulfonylphenyl]-5-(trifluoromethyl)-1,2,4-oxadiazole]
- pest or weed control at 200 ppm [3]: ≥ 80%
- inhibition at 20 ppm [1]: ≥ 80%
- melting point: 108 to 116 °C
- pest or weed control at 200 ppm (Phakopsora pachyrhizi): ≥ 80%

SMILES: O=S(=O)(c1ccccc1)c1ccc(-c2noc(C(F)(F)F)n2)cn1 [Compound 3.7, 3-[6-(benzenesulfonyl)-3-pyridyl]-5-(trifluoromethyl)-1,2,4-oxadiazole]
- pest or weed control at 200 ppm [3]: ≥ 80%
- inhibition at 20 ppm [1]: ≥ 80%
- melting point: 124 to 127 °C and 124 to 129 °C
- pest or weed control at 200 ppm (Phakopsora pachyrhizi): ≥ 80%

SMILES: O=S(=O)(c1ccc(-c2noc(C(F)(F)F)n2)cc1)c1cccc(F)c1 [Compound 3.14, 3-[4-(3-fluorophenyl)sulfonylphenyl]-5-(trifluoromethyl)-1,2,4-oxadiazole]
- pest or weed control at 200 ppm [3]: ≥ 80%
- inhibition at 20 ppm [1]: ≥ 80%
- melting point: 136 to 143 °C
- pest or weed control at 200 ppm (Phakopsora pachyrhizi): ≥ 80%

From patent US20180319753A1, “MICROBIOCIDAL OXADIAZOLE DERIVATIVES” (SYNGENTA PARTICIPATIONS AG, priority 2015, published 2018)
